Values of other authors in patent publication EP4609858A1, “BUP[…] AND PREPARATION METHOD THEREFOR” (Shenzhen Sciencare Pharmaceutical Co., Ltd., priority 2023, dated 2024).
Counter-ions that a name gives are not always drawn. Like-named read-outs stand apart in the source and are kept apart here.

CO[C@]12CC[C@@]3(C[C@@H]1[C@](C)(O)C(C)(C)C)[C@H]1Cc4ccc(O)c5c4[C@@]3(CCN1CC1CC1)[C@H]2O5 [buprenorphine hydrochloride]
solubility (in alcohol): soluble | solubility (in methanol): freely soluble | solubility (in water): slightly soluble
